Source: ChEMBL document CHEMBL1201862, “PubChem BioAssay data set” (2004)
Where “and” joins values, the source holds several entries; their conditions need not be identical. Equal values may be shown once.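 Growth conditions: 96-well plates. Treatment: test compound, 48 hours, 5 concentrations. Analysis: linear interpolation between bracketing concentrations; unreached endpoints set to highest concentration. GI50: concentration for 50% inhibition of growth.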 Calls of active or inactive are those of the source. No stated cut-off is given here; in the data, active = GI50 up to about 1.1 µM and inactive = higher. Starred links: 1 amine or outer side, 2 acyl side, 3 side chain; linkers in the order of their positions; H or OH if unused. Positions of bridges follow the written chain, without caps; N, C: chain ends. Non-standard residues stand in square brackets, D forms with d. Residues, ends and D or L forms follow the SMILES beside them. Chains are numbered I, II in the order given. Actinocin(9to1) = Cc1c2oc3c(C)ccc(C(=O)[*:1])c3nc-2c(C(=O)[*:2])c(N)c1=O; NMeT = CN[CH](C(=O)O)[CH](C)O; Sar = CNCC(=O)O

Assays:
Test in all cases: DTP human tumour cell line panel, 48 h
786-0 = test system: 786-0
A498 = test system: A498
A549 = test system: A549
ACHN = test system: ACHN
CAKI-1 = test system: CAKI-1
CCRF-CEM = test system: CCRF-CEM
COLO 205 = test system: COLO 205
DU-145 = test system: DU-145
EKVX = test system: EKVX
HCC 2998 = test system: HCC 2998
HCT-116 = test system: HCT-116
HCT-15 = test system: HCT-15
HOP-62 = test system: HOP-62
HOP-92 = test system: HOP-92
Hs-578T = test system: Hs-578T
K562 = test system: K562
KM12 = test system: KM12
LOX IMVI = test system: LOX IMVI
M14 = test system: M14
MCF7 = test system: MCF7
MDA-MB-231 = test system: MDA-MB-231
MDA-MB-435 = test system: MDA-MB-435
MDA-N = test system: MDA-N
MOLT-4 = test system: MOLT-4
NCI-H226 = test system: NCI-H226
NCI/ADR-RES = test system: NCI/ADR-RES
OVCAR-3 = test system: OVCAR-3
OVCAR-4 = test system: OVCAR-4
OVCAR-5 = test system: OVCAR-5
PC-3 = test system: PC-3
RPMI-8226 = test system: RPMI-8226
RXF 393 = test system: RXF 393
SF-268 = test system: SF-268
SF-295 = test system: SF-295
SF-539 = test system: SF-539
SK-MEL-28 = test system: SK-MEL-28
SK-MEL-2 = test system: SK-MEL-2
SK-MEL-5 = test system: SK-MEL-5
SK-OV-3 = test system: SK-OV-3
SN12C = test system: SN12C
SNB-19 = test system: SNB-19
SNB-75 = test system: SNB-75
SW-620 = test system: SW-620
T47D = test system: T47D
TK-10 = test system: TK-10
U-251 = test system: U-251
UACC-257 = test system: UACC-257
UACC-62 = test system: UACC-62
UO-31 = test system: UO-31
IGROV-1 = test system: IGROV-1
NCI-H23 = test system: NCI-H23
NCI-H460 = test system: NCI-H460
NCI-H522 = test system: NCI-H522
OVCAR-8 = test system: OVCAR-8

**Q.** `COc1cccc([C@@H]2C/C(=N\NC(=O)C(=O)N[C@@H](C)c3ccccc3)c3ccccc3N2)c1` was tested. Which GI50 (786-0) did it give?
**A.** The GI50 was 44.6 µM (inactive).

**Q.** What about the GI50 (A498) of the same molecule?
**A.** Its GI50 is > 100 µM (inactive).

**Q.** What about the GI50 (A549) of the same molecule?
**A.** Its GI50 is 46.1 µM (inactive).

**Q.** And the GI50 (ACHN)?
**A.** The GI50 was 40.6 µM (inactive).

**Q.** And the GI50 (CAKI-1)?
**A.** The GI50 was 25.8 µM (inactive).

**Q.** And the GI50 (CCRF-CEM)?
**A.** The GI50 was > 100 µM (inactive).

**Q.** What about the GI50 (COLO 205) of the same molecule?
**A.** The GI50 was > 100 µM (inactive).

**Q.** What about the GI50 (DU-145) of the same molecule?
**A.** Its GI50 is > 100 µM (inactive).

**Q.** What about the GI50 (EKVX) of the same molecule?
**A.** Its GI50 is 61.4 µM (inactive).

**Q.** What about the GI50 (HCC 2998) of the same molecule?
**A.** The GI50 was > 100 µM (inactive).

**Q.** What about the GI50 (HCT-116) of the same molecule?
**A.** The GI50 was > 100 µM (inactive).

**Q.** What about the GI50 (HCT-15) of the same molecule?
**A.** The GI50 was > 100 µM.

**Q.** And the GI50 (HOP-62)?
**A.** Its GI50 is 76.6 µM (inactive).

**Q.** What about the GI50 (HOP-92) of the same molecule?
**A.** The GI50 was 30.5 µM (inactive).

**Q.** What about the GI50 (Hs-578T) of the same molecule?
**A.** The GI50 was 23.7 µM (inactive).

**Q.** And the GI50 (K562)?
**A.** The GI50 was 32.1 µM (inactive).

**Q.** What about the GI50 (KM12) of the same molecule?
**A.** The GI50 was 10.1 µM (inactive).

**Q.** What about the GI50 (LOX IMVI) of the same molecule?
**A.** The GI50 was > 100 µM (inactive).

**Q.** What about the GI50 (M14) of the same molecule?
**A.** The GI50 was > 100 µM (inactive).

**Q.** What about the GI50 (MCF7) of the same molecule?
**A.** The GI50 was 7.05 µM (inactive).

**Q.** What about the GI50 (MDA-MB-231) of the same molecule?
**A.** The GI50 was 35.6 µM (inactive).

**Q.** What about the GI50 (MDA-MB-435) of the same molecule?
**A.** Its GI50 is 4.82 µM (inactive).

**Q.** And the GI50 (MDA-N)?
**A.** The GI50 was 4.66 µM (inactive).

**Q.** What about the GI50 (MOLT-4) of the same molecule?
**A.** Its GI50 is 4.1 µM (inactive).

**Q.** And the GI50 (NCI-H226)?
**A.** Its GI50 is > 100 µM (inactive).

**Q.** What about the GI50 (NCI/ADR-RES) of the same molecule?
**A.** Its GI50 is 65.2 µM (inactive).

**Q.** What about the GI50 (OVCAR-3) of the same molecule?
**A.** The GI50 was > 100 µM (inactive).

**Q.** What about the GI50 (OVCAR-4) of the same molecule?
**A.** Its GI50 is 34.8 µM (inactive).

**Q.** And the GI50 (OVCAR-5)?
**A.** The GI50 was > 100 µM (inactive).

**Q.** And the GI50 (PC-3)?
**A.** Its GI50 is > 100 µM (inactive).

**Q.** And the GI50 (RPMI-8226)?
**A.** The GI50 was 32.4 µM (inactive).

**Q.** And the GI50 (RXF 393)?
**A.** The GI50 was 35.3 µM (inactive).

**Q.** What about the GI50 (SF-268) of the same molecule?
**A.** The GI50 was 71 µM (inactive).

**Q.** What about the GI50 (SF-295) of the same molecule?
**A.** The GI50 was 73.1 µM (inactive).

**Q.** What about the GI50 (SF-539) of the same molecule?
**A.** The GI50 was 13.1 µM (inactive).

**Q.** And the GI50 (SK-MEL-28)?
**A.** Its GI50 is > 100 µM (inactive).

**Q.** And the GI50 (SK-MEL-2)?
**A.** The GI50 was > 100 µM (inactive).

**Q.** And the GI50 (SK-MEL-5)?
**A.** The GI50 was 14.5 µM (inactive).

**Q.** What about the GI50 (SK-OV-3) of the same molecule?
**A.** Its GI50 is > 100 µM (inactive).

**Q.** And the GI50 (SN12C)?
**A.** The GI50 was > 100 µM (inactive).

**Q.** What about the GI50 (SNB-19) of the same molecule?
**A.** Its GI50 is 24.6 µM (inactive).

**Q.** And the GI50 (SNB-75)?
**A.** The GI50 was 21.3 µM (inactive).

**Q.** And the GI50 (SW-620)?
**A.** Its GI50 is 89.5 µM (inactive).

**Q.** What about the GI50 (T47D) of the same molecule?
**A.** The GI50 was 51.6 µM (inactive).

**Q.** What about the GI50 (TK-10) of the same molecule?
**A.** The GI50 was > 100 µM (inactive).

**Q.** What about the GI50 (U-251) of the same molecule?
**A.** Its GI50 is > 100 µM (inactive).

**Q.** What about the GI50 (UACC-257) of the same molecule?
**A.** The GI50 was 82 µM (inactive).

**Q.** And the GI50 (UACC-62)?
**A.** The GI50 was 9.31 µM (inactive).

**Q.** And the GI50 (UO-31)?
**A.** Its GI50 is > 100 µM (inactive).

**Q.** With `Cc1c2oc3c(C)ccc(C(=O)NC4C(=O)NC(C(C)C)C(=O)N5CCCC5C(=O)N(C)CC(=O)N(C)C(C(C)O)C(=O)OC4C)c3nc-2c(C(=O)NC2C(=O)NC(C(C)C)C(=O)N3CCCC3C(=O)N(C)CC(=O)N(C)C(C(C)O)C(=O)OC2C)c(N)c1=O` (stereo unspecified) (I: TVP[Sar][NMeT] / II: TVP[Sar][NMeT]; ester I:1-I:C, II:1-II:C; linker I:N-II:N via Actinocin(9to1); configuration not given here) as the molecule, how does the GI50 (ACHN) read?
**A.** The GI50 was 1.69 µM (inactive).

**Q.** And the GI50 (CCRF-CEM)?
**A.** Its GI50 is 1.59 µM (inactive) and 957 nM (active).

**Q.** And the GI50 (HCT-116)?
**A.** The GI50 was 556 nM (active) and 472 nM (active).

**Q.** And the GI50 (HOP-62)?
**A.** Its GI50 is 1.18 µM (inactive) and 792 nM (active).

**Q.** What about the GI50 (HOP-92) of the same molecule?
**A.** Its GI50 is > 1 µM (active) and 1.9 µM (inactive).

**Q.** What about the GI50 (Hs-578T) of the same molecule?
**A.** Its GI50 is 1.46 µM (inactive).

**Q.** What about the GI50 (IGROV-1) of the same molecule?
**A.** The GI50 was 512 nM (active) and 914 nM (active).

**Q.** What about the GI50 (K562) of the same molecule?
**A.** Its GI50 is 0.586 µM (active).

**Q.** And the GI50 (LOX IMVI)?
**A.** The GI50 was 565 nM (active) and 557 nM (active).

**Q.** And the GI50 (MCF7)?
**A.** The GI50 was 445 nM (active) and 671 nM (active).

**Q.** And the GI50 (MDA-N)?
**A.** Its GI50 is 1.68 µM (inactive).

**Q.** And the GI50 (MOLT-4)?
**A.** Its GI50 is > 1 µM (active) and 875 nM (active).

**Q.** What about the GI50 (NCI-H23) of the same molecule?
**A.** The GI50 was > 1 µM (active) and 1.41 µM (inactive).

**Q.** And the GI50 (NCI-H460)?
**A.** Its GI50 is 470 nM (active) and 401 nM (active).

**Q.** What about the GI50 (NCI-H522) of the same molecule?
**A.** Its GI50 is 173 nM (active) and 255 nM (active).

**Q.** And the GI50 (OVCAR-8)?
**A.** The GI50 was 1.1 µM (active).

**Q.** What about the GI50 (RPMI-8226) of the same molecule?
**A.** The GI50 was 0.773 µM (active).

**Q.** What about the GI50 (RXF 393) of the same molecule?
**A.** The GI50 was 453 nM (active) and 820 nM (active).

**Q.** What about the GI50 (SF-268) of the same molecule?
**A.** Its GI50 is > 1 µM (active) and 1.63 µM (inactive).

**Q.** What about the GI50 (SF-539) of the same molecule?
**A.** Its GI50 is 518 nM (active) and 533 nM (active).

**Q.** What about the GI50 (SK-MEL-28) of the same molecule?
**A.** The GI50 was 583 nM (active) and 769 nM (active).

**Q.** And the GI50 (SK-MEL-2)?
**A.** Its GI50 is 0.719 µM (active).

**Q.** And the GI50 (SN12C)?
**A.** Its GI50 is > 1 µM (active) and 1.26 µM (inactive).

**Q.** What about the GI50 (SNB-75) of the same molecule?
**A.** The GI50 was 313 nM (active) and 186 nM (active).

**Q.** And the GI50 (SW-620)?
**A.** The GI50 was > 1 µM (active) and 834 nM (active).

**Q.** And the GI50 (U-251)?
**A.** Its GI50 is 495 nM (active) and 369 nM (active).

**Q.** And the GI50 (UACC-62)?
**A.** Its GI50 is 0.478 µM (active).
